Measured values as given in patent US20240279249A1, “Compound, Coating Composition Comprising Same, Organic Light-Emitting Device Using Same, and Manufacturing Method Therefor” (LG Chem, Ltd., priority 2021, published 2024).
Where two headings read alike, the source gives them in different places.

Key:
[1] = Film retention rate / solvent resistance: UV-vis absorption of heat-treated film after immersion in cyclohexanone; type: physicochemical; conditions: film from 4 wt % solution in cyclohexanone, 100 nm on quartz, heat-treated 190° C. to 200° C. in nitrogen 30 minutes, immersed in cyclohexanone 10 minutes; higher absorbance = more film retained
Description: Thereafter, after the substrate was heat-treated at a temperature of 190° C. to 200° C. in a nitrogen atmosphere for 30 minutes, the UV-vis absorption spectrum was measured. Subsequently, the same sample was immersed in cyclohexanone for 10 minutes and remove, the solvent was dried from the sample, and then the UV-vis absorption spectrum was also measured.
In the process of manufacturing the device, the film is retained while being cured during the heat treatment. The higher absorbance means that a relatively more residue remains on the film.

[2] = Solubility at 5 wt % relative to each solvent
From the text: In a solution process organic light emitting device, when an ink solvent is selected for the process, the ink solvent needs to dissolve both a host and a dopant.

[3] = 5 wt % relative to solvent, Acetone
[4] = 5 wt % relative to solvent, Dichloromethane
[5] = 5 wt % relative to solvent, Toluene

Compound | Absorbance @ 350 nm [1] | further results
C=Cc1ccc([B-](c2c(F)c(F)c(C(F)(F)F)c(F)c2F)(c2c(F)c(F)c(C(F)(F)F)c(F)c2F)c2c(F)c(F)c(C(F)(F)F)c(F)c2F)cc1.Cc1ccc([I+]c2ccc(C(C)C)cc2)cc1 [Comparative Compound 1, (4-isopropylphenyl) (p-tolyl) iodonium tris(2,3,5,6-tetrafluoro-4-(trifluoromethyl)phenyl) (4-vinylphenyl)borate, reference compound] | 0.483 | –
C=Cc1c(F)c(F)c([B-](c2c(F)c(F)c(C(F)(F)F)c(F)c2F)(c2c(F)c(F)c(C(F)(F)F)c(F)c2F)c2c(F)c(F)c(C(F)(F)F)c(F)c2F)c(F)c1F.Cc1ccc([I+]c2ccc(C(C)C)cc2)cc1 [Comparative Compound 2, (4-isopropylphenyl) (p-tolyl)iodonium tris(2,3,5,6-tetrafluoro-4-(trifluoromethyl)phenyl) (2,3,5,6-tetrafluoro-4-vinylphenyl) borate, reference compound] | 0.526 | –
Cc1ccc([I+]c2ccc(C(C)C)cc2)cc1.Fc1c(F)c([B-](c2c(F)c(F)c(C(F)(F)F)c(F)c2F)(c2c(F)c(F)c(C(F)(F)F)c(F)c2F)c2c(F)c(F)c(C(F)(F)F)c(F)c2F)c(F)c(F)c1-c1ccc2c(c1)CC2 [Comparative Compound 3, (4-isopropylphenyl) (p-tolyl)iodonium(4-(bicyclo[4.2.0]octa-1,3,5-trien-3-yl)-2,3,5,6-tetrfluorophenyl)tris(2,3,5,6-tetrafluoro-4-(trifluoromethyl)phenyl)borate, reference compound] | 0.392 | –
C=Cc1ccc(-c2c(F)c(F)c([B-](c3c(F)c(F)c(-c4ccc(C=C)cc4)c(F)c3F)(c3c(F)c(F)c(-c4ccc(C=C)cc4)c(F)c3F)c3c(F)c(F)c(-c4ccc(C=C)cc4)c(F)c3F)c(F)c2F)cc1.Cc1ccc([I+]c2ccc(C(C)C)cc2)cc1 [Comparative Compound 4, (4-isopropylphenyl) (p-tolyl)iodonium tetrakis(2,3,5,6-tetrafluoro-4′-vinyl-[1,1′-biphenyl]-4-yl) borate, reference compound] | 0.467 | Solubility in Acetone [2, 3]: Dissolved; Solubility in Dichloromethane [2, 4]: Dissolved; Solubility in Toluene [2, 5]: Insoluble
C=Cc1ccc(-c2cc(-c3ccc(C=C)cc3)cc(-c3c(F)c(F)c(-c4c(F)c(F)c([B-](c5c(F)c(F)c(C(F)(F)F)c(F)c5F)(c5c(F)c(F)c(C(F)(F)F)c(F)c5F)c5c(F)c(F)c(C(F)(F)F)c(F)c5F)c(F)c4F)c(F)c3F)c2)cc1.Cc1ccc([I+]c2ccc(C(C)C)cc2)cc1 [Compound 3, (4-isopropylphenyl) (p-tolyl)iodonium (2″,2′″,3″,13′″,5″,5′″,6″,6′″-octafluoro-4-vinyl-5′-(4-vinylphenyl)-[1,1′:3′,1″:4″,1′″-quarterphenyl]-4′″-yl)tris(2,3,5,6-tetrafluoro-4-(trifluoromethyl)phenyl)borate] | 0.813 | Solubility in Acetone [2]: Dissolved; Solubility in Dichloromethane [2]: Dissolved; Solubility in Toluene [2]: Dissolved
C=Cc1cc(C=C)cc(-c2c(F)c(F)c(-c3c(F)c(F)c([B-](c4c(F)c(F)c(C(F)(F)F)c(F)c4F)(c4c(F)c(F)c(C(F)(F)F)c(F)c4F)c4c(F)c(F)c(C(F)(F)F)c(F)c4F)c(F)c3F)c(F)c2F)c1 [Compound 5] | 0.801 | Solubility in Acetone [2, 3]: Dissolved; Solubility in Dichloromethane [2, 4]: Dissolved; Solubility in Toluene [2, 5]: Dissolved
C=Cc1ccc(-c2c(F)c(F)c(-c3c(F)c(F)c([B-](c4c(F)c(F)c(C(F)(F)F)c(F)c4F)(c4c(F)c(F)c(C(F)(F)F)c(F)c4F)c4c(F)c(F)c(C(F)(F)F)c(F)c4F)c(F)c3F)c(F)c2F)c2ccccc12 [Compound 7] | 0.603 | –
Fc1c(F)c(-c2c(F)c(F)c([B-](c3c(F)c(F)c(C(F)(F)F)c(F)c3F)(c3c(F)c(F)c(C(F)(F)F)c(F)c3F)c3c(F)c(F)c(C(F)(F)F)c(F)c3F)c(F)c2F)c(F)c(F)c1-c1ccc2c(c1)CC2 [Compound 8] | 0.546 | –
(4-isopropylphenyl) (p-tolyl)iodonium (2,3,5,6-tetrafluoro-4′-vinyl-[1,1′-biphenyl]-4-yl)tris(2,3,5,6-tetrafluoro-4-(trifluoromethyl)phenyl)borate [Compound 1] | 0.802 | –
